According to PMC11822212, “High-throughput screening identifies Aurora kinase B as a critical therapeutic target for Merkel cell carcinoma” (Nature Communications, 2025):
Like-named read-outs stand apart in the source and are kept apart here.

How the values were obtained:
[1] = test system: six MCC cell lines and four control cell lines; test: qHTS cell viability, all 10 cell lines screened; format: cell-based
[2] = test system: MCC26 cells (VN-MCC); test: qHTS cell viability (CellTiter-Glo, 72 h; primary and follow-up small molecule screen); format: cell-based, human
[3] = test system: VP-MCC cell lines (WAGA, MKL-1, MKL-2); test: qHTS cell viability, VP-MCC cell lines as a group (mean AUC, VP.MCC.avg); format: cell-based, human
[4] = test system: HACAT cells; test: qHTS cell viability (CellTiter-Glo, 72 h; primary screen), control cell line; format: cell-based, human
[5] = test system: UISO cells (VN-MCC); test: qHTS cell viability (CellTiter-Glo, 72 h; primary and follow-up small molecule screen); format: cell-based, human
[6] = test system: HEK293T cells; test: qHTS cell viability (CellTiter-Glo, 72 h; primary screen), control cell line; format: cell-based, human
[7] = test system: MCC13 cells (VN-MCC); test: qHTS cell viability (CellTiter-Glo, 72 h; primary and follow-up small molecule screen); format: cell-based, human
[8] = test system: MCC cell lines (WAGA, MKL-1, MKL-2, MCC13, MCC26, UISO); test: qHTS cell viability, all six MCC cell lines as a group (mean AUC, MCC.avg); format: cell-based, human
[9] = test system: WAGA cells (VP-MCC); test: qHTS cell viability (CellTiter-Glo, 72 h; primary and follow-up small molecule screen); format: cell-based, human
[10] = test system: control cell lines (HACAT, HEK293T, CRL-7250, NIH-3T3); test: qHTS cell viability, control cell lines as a group (mean AUC, Control.avg); format: cell-based
[11] = test system: CRL-7250 cells; test: qHTS cell viability (CellTiter-Glo, 72 h; primary screen), control cell line; format: cell-based
[12] = test system: MKL-2 cells (VP-MCC); test: qHTS cell viability (CellTiter-Glo, 72 h; primary and follow-up small molecule screen); format: cell-based, human
[13] = test system: NIH-3T3 cells; test: qHTS cell viability (CellTiter-Glo, 72 h; primary screen), control cell line; format: cell-based, mouse
[14] = test system: MKL-1 cells (VP-MCC); test: qHTS cell viability (CellTiter-Glo, 72 h; primary and follow-up small molecule screen); format: cell-based, human
[15] = test system: VN-MCC cell lines (MCC13, MCC26, UISO); test: qHTS cell viability, VN-MCC cell lines as a group (mean AUC, VN.MCC.avg); format: cell-based, human
[16] = MIPE library, 11-point DRC, sheet S2E
[17] = MIPE library, 11-point DRC, control cell line, sheet S2E

CCNC(=O)Nc1ccc2ncc(Nc3ccc(C)cc3)nc2n1 [D-106669]
Control-MCC ([1]; MIPE library, Control AUC minus MCC AUC (therapeutic window), sheet S2E): 51.0396
MCC26_AUC [2, 16]: 446.547
Control-VP-MCC ([3]; MIPE library, Control AUC minus VP-MCC AUC (therapeutic window), sheet S2E): 60.3261
VP-MCC_Avg_AUC ([3]; MIPE library, mean AUC of VP-MCC cell lines, sheet S2E): 410.488
HACAT_AUC [4, 17]: 474.569
UISO_AUC [5, 16]: 355.75
HEK293T_AUC [6, 17]: 479.506
MCC13_AUC [7, 16]: 484.886
MCC_Avg_AUC ([8]; MIPE library, mean AUC of six MCC cell lines, sheet S2E): 419.775
WAGA_AUC [9, 16]: 400.326
Control_Avg_AUC ([10]; MIPE library, mean AUC of control cell lines, sheet S2E): 470.814
CRL7250_AUC [11, 17]: 461.458
MKL2_AUC [12, 16]: 431.031
NIH3T3_AUC [13, 17]: 467.724
MKL1_AUC [14, 16]: 400.108
Control-VN-MCC ([15]; MIPE library, Control AUC minus VN-MCC AUC (therapeutic window), sheet S2E): 41.7531
VN-MCC_Avg_AUC ([15]; MIPE library, mean AUC of VN-MCC cell lines, sheet S2E): 429.061

C[C@H](CN1CCOCC1)C(C(=O)N1CCCC1)(c1ccccc1)c1ccccc1.O=C(O)C(O)C(O)C(=O)O [Dextromoramide tartrate]
Control-MCC [1]: 44.5539
MCC26_AUC [2]: 445.292
Control-VP-MCC [3]: 71.9259
VP-MCC_Avg_AUC [3]: 390.87
HACAT_AUC [4]: 472.266
UISO_AUC [5]: 445.259
HEK293T_AUC [6]: 429.542
MCC13_AUC [7]: 446.289
MCC_Avg_AUC [8]: 418.242
WAGA_AUC [9]: 399.942
Control_Avg_AUC [10]: 462.795
CRL7250_AUC [11]: 471.896
MKL2_AUC [12]: 383.165
NIH3T3_AUC [13]: 477.478
MKL1_AUC [14]: 389.502
Control-VN-MCC [15]: 17.1819
VN-MCC_Avg_AUC [15]: 445.614

CC[N+](CC)(CC)CCOC(=O)C(C1CCCC1)C1CCCC1 [Diponium bromide]
Control-MCC ([1]; NPC library, therapeutic window: Control avg AUC minus MCC avg AUC): 18.183
MCC26_AUC ([2]; NPC library, qHTS dose-response AUC, MCC26): 499.996
MCC26_AUC ([2]; area under the dose-response curve, MCC26 cells, AUC<450 = reduced viability): 499.996
VP-MCC_Avg_AUC ([3]; NPC library, mean AUC of VP-MCC cell lines): 429.684
Control-VP-MCC ([3]; NPC library, therapeutic window: Control avg AUC minus VP-MCC avg AUC): 53.0478
HACAT_AUC ([4]; NPC library, qHTS dose-response AUC, HACAT control): 486.819
HACAT_AUC ([4]; area under the dose-response curve, HACAT control cells, AUC<450 = reduced viability): 486.819
UISO_AUC ([5]; NPC library, qHTS dose-response AUC, UISO): 475.444
UISO_AUC ([5]; area under the dose-response curve, UISO cells, AUC<450 = reduced viability): 475.444
HEK293T_AUC ([6]; NPC library, qHTS dose-response AUC, HEK293T control): 472.065
HEK293T_AUC ([6]; area under the dose-response curve, HEK293T control cells, AUC<450 = reduced viability): 472.065
MCC13_AUC ([7]; NPC library, qHTS dose-response AUC, MCC13): 522.801
MCC13_AUC ([7]; area under the dose-response curve, MCC13 cells, AUC<450 = reduced viability): 522.801
MCC_Avg_AUC ([8]; NPC library, mean AUC of six MCC cell lines): 464.549
WAGA_AUC ([9]; NPC library, qHTS dose-response AUC, WAGA): 427.062
WAGA_AUC ([9]; area under the dose-response curve, WAGA cells, AUC<450 = reduced viability): 427.062
Control_Avg_AUC ([10]; NPC library, mean AUC of control cell lines): 482.732
CRL7250_AUC ([11]; NPC library, qHTS dose-response AUC, CRL7250 control): 487.778
CRL7250_AUC ([11]; area under the dose-response curve, CRL7250 control cells, AUC<450 = reduced viability): 487.778
MKL2_AUC ([12]; NPC library, qHTS dose-response AUC, MKL2): 434.115
MKL2_AUC ([12]; area under the dose-response curve, MKL-2 cells, AUC<450 = reduced viability): 434.115
NIH3T3_AUC ([13]; NPC library, qHTS dose-response AUC, NIH3T3 control): 484.264
NIH3T3_AUC ([13]; area under the dose-response curve, NIH3T3 control cells, AUC<450 = reduced viability): 484.264
MKL1_AUC ([14]; NPC library, qHTS dose-response AUC, MKL1): 427.875
MKL1_AUC ([14]; area under the dose-response curve, MKL-1 cells, AUC<450 = reduced viability): 427.875
VN-MCC_Avg_AUC ([15]; NPC library, mean AUC of VN-MCC cell lines): 499.413
Control-VN-MCC ([15]; NPC library, therapeutic window: Control avg AUC minus VN-MCC avg AUC): -16.6818

CN(C)C(=O)Nc1ccc(Cl)c(Cl)c1 [Diuron]
Control-MCC [1]: 150.329
Area under the dose-response curve (AUC) MCC26 Replicate 1 [2]: 419.4
Area under the dose-response curve (AUC) MCC26 Replicate 2 [2]: 420.5
Area under the dose-response curve (AUC) MCC26 Replicate 3 [2]: 426.9
MCC26_AUC [2]: 462.009
Control-VP-MCC [3]: 283.207
VP-MCC_Avg_AUC [3]: 194.692
HACAT_AUC [4]: 457.965
Area under the dose-response curve (AUC) UISO Replicate 1 [5]: 424.2
Area under the dose-response curve (AUC) UISO Replicate 2 [5]: 442.5
Area under the dose-response curve (AUC) UISO Replicate 3 [5]: 396.8
UISO_AUC [5]: 432.63
HEK293T_AUC [6]: 497.019
Area under the dose-response curve (AUC) MCC13 Replicate 1 [7]: 429.4
Area under the dose-response curve (AUC) MCC13 Replicate 2 [7]: 471.6
Area under the dose-response curve (AUC) MCC13 Replicate 3 [7]: 443.0
MCC13_AUC [7]: 486.707
MCC_Avg_AUC [8]: 327.57
Area under the dose-response curve (AUC) WAGA Replicate 1 [9]: 487.4
Area under the dose-response curve (AUC) WAGA Replicate 2 [9]: 506.5
Area under the dose-response curve (AUC) WAGA Replicate 3 [9]: 435.9
WAGA_AUC [9]: 128.39
Control_Avg_AUC [10]: 477.9
CRL7250_AUC [11]: 483.042
Area under the dose-response curve (AUC) MKL-2 Replicate 1 [12]: 465.6
Area under the dose-response curve (AUC) MKL-2 Replicate 2 [12]: 447.9
Area under the dose-response curve (AUC) MKL-2 Replicate 3 [12]: 414.0
MKL2_AUC [12]: 290.674
NIH3T3_AUC [13]: 473.572
Area under the dose-response curve (AUC) MKL-1 Replicate 1 [14]: 459.9
Area under the dose-response curve (AUC) MKL-1 Replicate 2 [14]: 477.0
Area under the dose-response curve (AUC) MKL-1 Replicate 3 [14]: 426.1
MKL1_AUC [14]: 165.013
Control-VN-MCC [15]: 17.4511
VN-MCC_Avg_AUC [15]: 460.449
